According to patent US20040254241A1, “Aryl sulfamate derivatives” (priority 2004, published 2004):
pIC50: −log10 of the molar value.

Molecular target: T1, recombinant human estrone sulfatase (Homo sapiens, UniProt P08842)
T1 construct: made in house; host or cells: Chinese Hamster Ovary (CHO) cells
T1 sequence (P08842 22-583): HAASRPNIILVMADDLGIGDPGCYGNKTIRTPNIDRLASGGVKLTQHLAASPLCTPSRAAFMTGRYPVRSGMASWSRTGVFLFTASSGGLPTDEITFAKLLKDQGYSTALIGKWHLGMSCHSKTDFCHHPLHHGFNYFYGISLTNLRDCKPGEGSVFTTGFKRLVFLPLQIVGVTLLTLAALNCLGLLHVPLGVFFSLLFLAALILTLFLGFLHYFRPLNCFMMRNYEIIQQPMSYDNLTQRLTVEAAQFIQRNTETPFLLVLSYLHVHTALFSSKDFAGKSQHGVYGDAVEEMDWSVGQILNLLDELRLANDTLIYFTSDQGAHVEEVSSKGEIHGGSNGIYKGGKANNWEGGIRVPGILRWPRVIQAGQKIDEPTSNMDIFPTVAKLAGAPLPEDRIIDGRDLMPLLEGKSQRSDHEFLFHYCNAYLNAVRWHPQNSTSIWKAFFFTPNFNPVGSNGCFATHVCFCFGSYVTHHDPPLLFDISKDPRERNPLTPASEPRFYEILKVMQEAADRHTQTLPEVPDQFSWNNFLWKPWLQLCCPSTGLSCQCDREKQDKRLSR
Test: Test for inhibition of estrone sulfatase (steroid sulfatase)
Format: biochemical
Details: 4-methylumbelliferyl sulfate 0.3 mmol/L, phosphate buffer pH 7.5, 37° C., 1 hour; enzyme expressed in CHO cells, partially purified; read-out: Inhibitory activity against steroid sulfatase IC50
Protocol: Test Example 1: Test for Inhibition of Estrone Sulfatase (Steroid Sulfatase)
4-Methylumbelliferyl sulfate (final concentration 0.3 mmol/L), recombinant human estrone sulfatase (7.8 ng/well), and each solution of the test compound having each test concentrations (test compound was dissolved in 0.001 mL of DMSO) were added to a phosphate buffer (pH 7.5) (final volume 0.1 mL) containing 0.28 mol/L sucrose and 0.04 mol/L nicotinamide. An enzyme reaction was conducted at 37° C. for 1 hour. The human estrone sulfatase gene was introduced into Chinese Hamster Ovary (CHO) cells, and the recombinant human estrone sulfatase was expressed, then it was used after partial purification. After completing the enzyme reaction, 2 mol/L glycine-sodium hydroxide solution (pH 10.3) (0.13 mL) was added and stirred. Using a fluorescent plate reader (Cyto Fluor II), the fluorescent strength of the generated 4-methylumbelliferone was measured. The measurements were conducted in duplicate at the same time. The fluctuations within the assay were within 10%. An enzyme reaction without the presence of a test compound was conducted at the same time. The inhibitory activity against estrone sulfatase for each concentration of the test compounds was calculated using the following equation.
A: Amount of 4-methylumbelliferone when test compound is present
B: Amount of 4-methylumbelliferone when test compound is not present
Inhibitory activity against estrone sulfatase [formula]
The inhibitory activity against estrone sulfatase of the aryl sulfamate derivative can be expressed as the concentration (IC50) of aryl sulfamate derivative at which the estrone sulfatase activity in the presence of the aryl sulfamate derivative is half of that when no test compound is added.

| pIC50 | Compound |
| --- | --- |
| 7.14 | CCCCCCCCCNC(=O)/C=C/c1ccc(OS(N)(=O)=O)cc1 [Compound 1] |
| 7.39 | CCCCCCCCCNC(=O)/C(C#N)=C(\C)c1ccc(OS(N)(=O)=O)c(Br)c1 [Compound 56] |
| 7.42 | CCCCCCCCCNC(=O)/C(C#N)=C(\C)c1ccc(OS(N)(=O)=O)c(Cl)c1 [Compound 55] |
| 7.27 | CCCCCCCCCNC(=O)/C(Br)=C/c1ccc(OS(N)(=O)=O)cc1 [Compound 42] |
| 7.23 | CCCCCCCCCNC(=O)/C(I)=C/c1ccc(OS(N)(=O)=O)cc1 [Compound 43] |
| 7.21 | CCCCCCCCCNC(=O)/C(C)=C/c1ccc(OS(N)(=O)=O)cc1 [Compound 3] |

| Compound | pIC50 |
| --- | --- |
| CCCCCCCCCNC(=O)/C(C#N)=C(\C)c1ccc(OS(N)(=O)=O)cc1 [Compound 13] | 7.92 |
